This is an account of results in patent US20070254894A1, “Novel small molecules with selective cytotoxicity against human microvascular endothelial cell proliferation” (priority 2006, published 2007).

Counter-ions that a name gives are not always drawn. Like-named read-outs stand apart in the source and are kept apart here.

The subject of series [1] is HMVEC cells stimulated with VEGF 165. The series is described as follows: VEGF driven HMVEC proliferation screen. The format is cell-based. The procedure:
(§1) HMVEC cells were plated on collagen-coated plates at 2500 cells/well for 24 hours. Various concentrations of test compounds were then added to duplicate plates. […] Anti-FGF antibody (final concentration of 5 μg/mL) was added to four control wells as a standard inhibitor. At the same time the compounds were added, a T-zero plate was generated (Alamar blue was added to a plate and read after three hours). The plates with the compounds were incubated for one hour at 37° C., 5% carbon dioxide. At this point, b-FGF was added (final concentration of 2.5 ng/mL). Tween-20 (10 μL) was added to four additional control wells to represent total death and the plates were returned to the carbon dioxide incubator for 6 days.
The assay was run identically using VEGF in place of b-FGF. The final concentration of VEGF 165, in this mode, was 10 ng/mL. The control inhibitor was anti-VEGF antibody (final concentration of […]). All other conditions were the same.

Series [2] has as its system HMVEC cells stimulated with b-FGF. The series can be described thus: b-FGF driven HMVEC proliferation screen. The series is classed as cell-based. The method, then: as §1
Another series in a line: in vitro. To be noted: human, primary human dermal fibroblasts, D. Fibroblast LC50, 6 days, Alamar blue. The method, then:
(§2) In parallel with the VEGF and FGF screens, a normal cell toxicity assay was run. Primary Human Dermal Fibroblasts (Clonetics) were plated at 5000 cells/well. After 24 hours various concentrations of test compounds, were added in duplicate plates and 10% Tween-20 was added to four control wells to represent total death. At the same time a T-zero plate was generated. The plates were returned to the carbon dioxide incubator and on day 6 Alamar blue was added and the plates read after 3 hours.
(§3) Using a T-zero plate allows the observation of compounds that cause the cells to become static as well as inhibit growth.
In general terms: Alamar Blue is a resazurin reagent that responds to reducing activity.

Series [3] concerns Primary Human Dermal Fibroblasts. The series can be described thus: in vitro. To be noted: read-out: D. Fibroblast LC50, 6 days, Alamar blue. The procedure: as §2, §3
[4] abbreviates: Homo sapiens, HMVEC, 144 h, VEGF 165 10 ng/mL, 6 days, Alamar blue, read-out: VEGF LC50.
Where [5] appears, read: Homo sapiens, HMVEC, 144 h, b-FGF 2.5 ng/mL, 6 days, Alamar blue, read-out: b-FGF LC50.
The mark [6] stands for this setting: VEGF 165 10 ng/mL, 6 days, Alamar blue, read-out: VEGF LC50.
The mark [7] stands for this setting: b-FGF 2.5 ng/mL, 6 days, Alamar blue, read-out: b-FGF LC50.

Consider `CN1CCCC[C@H]1C(=O)Nc1cccc2cccnc12` [Compound 69], for which the CC50 in series [1] (setting [4]) stood at 3.1 µM; in series [2] (setting [5]), 2.6 µM. In addition, in “in vitro”, the CC50 at 6 days was > 10 µM.
In the same order, the values of `COc1cc(NC(=O)[C@@H]2CCCN2C)c2ncccc2c1` [Compound 66] are 0.24 µM, 0.24 µM and > 10 µM.
In the same order, the values of `Cc1cc(NC(=O)c2ccccn2)c2ncccc2c1Br` [Compound 16, pyridine-2-carboxylic acid (5-bromo-6-methyl-quinolin-8-yl)-amide] are 0.38 µM, 0.38 µM and > 10 µM.
For `C[C@@H](C(=O)Nc1cccc2cccnc12)N(C)C` [Compound 60], the CC50 in series [1] (setting [4]) came to 0.73 µM; in series [2] (setting [5]) it was 0.52 µM. Besides, in “in vitro”, the CC50 at 6 days is > 10 µM.
In the same order, the values of `O=C(Nc1cccc2nccnc12)c1ccccn1` [Compound 94] are 0.28 µM, 0.29 µM and > 10 µM.
In the same order, the values of `CC(C)CN1CCC[C@H]1C(=O)Nc1cccc2cccnc12` [Compound 63] are 5.5 µM, 4.4 µM and > 10 µM.
In the same order, the values of `O=C(Nc1cccc2ccnnc12)c1ccccn1` [Compound 76] are 3.5 µM, 3.3 µM and > 10 µM.
`CN1CCN(c2ccc(NS(=O)(=O)c3ccccn3)c3ncccc23)CC1` [Compound 110]: the results for the CC50 in series [1] (setting [4]) and in series [2] (setting [5]) were 1.5 µM and 1.3 µM, respectively. Moreover, the CC50 at 6 days in “in vitro” was > 10 µM.
On the same counts, the results for `Cc1cc(NC(=O)[C@@H]2CCCN2C)c2ncccc2c1` [Compound 67] are 0.23 µM, 0.35 µM and > 10 µM.
On to `CN1CCCN(c2ccnc(C(=O)Nc3cccc4cccnc34)c2)CC1` [Compound 102], for which the CC50 in series [1] (setting [4]) is 0.024 µM; in series [2] (setting [5]), 0.031 µM. In addition, the CC50 at 6 days in the series “in vitro” is > 10 µM.
For the molecule `CN1CCC[C@H]1C(=O)Nc1cccc2cccnc12` [Compound 107], the CC50 in series [1] (setting [6]) came out at 0.46 µM; in series [2] (setting [7]), 0.41 µM. For the same molecule, the CC50 at 6 days in “in vitro” is > 10 µM.
`CCCN1CCC[C@H]1C(=O)Nc1cccc2cccnc12` [Compound 62]: the results for the CC50 in series [1] (setting [4]) and in series [2] (setting [5]) were 1.3 µM and 1.2 µM, respectively. Moreover, the CC50 at 6 days in the series “in vitro” was > 10 µM.
In the same order, the values of `CN1CCCC[C@@H]1C(=O)Nc1cccc2cccnc12` [Compound 70] are 3.9 µM, 2.8 µM and > 10 µM.
As for `CN1CCC[C@@H]1C(=O)Nc1cccc2cccnc12` [Compound 65], the CC50 in series [1] (setting [4]) was found to be 0.23 µM; in series [2] (setting [5]) it was 0.29 µM. In addition, the CC50 at 6 days in “in vitro” was > 10 µM.
In the same order, the values of `O=S(=O)(Nc1cccc2nccnc12)c1ccccn1` [Compound 78] are 2.4 µM, 4.2 µM and > 10 µM.
In the same order, the values of `Cc1ccc(NC(=O)c2ccccn2)c2ncccc12` [Compound 96] are 0.14 µM, 0.1 µM and > 10 µM.
In the same order, the values of `O=C(Nc1ccc(N2CCOCC2)c2cccnc12)c1cc(Cl)ccn1` [Compound 51] are 0.22 µM, 0.23 µM and > 10 µM.
With `CC(C)N1CCC[C@H]1C(=O)Nc1cccc2cccnc12` [Compound 64], the CC50 stood at 6.4 µM in series [1] (setting [4]) and 5.2 µM in series [2] (setting [5]). Besides, in the series “in vitro”, the CC50 at 6 days was > 10 µM.
On the same counts, the results for `CN(C)[C@@H](Cc1ccccc1)C(=O)Nc1cccc2cccnc12` [Compound 59] are 1.2 µM, 1.1 µM and > 10 µM.
In the same order, the values of `O=C(CN1CCCC1)Nc1cccc2cccnc12` [Compound 56] are 1.3 µM, 1.4 µM and > 10 µM.
As to `COc1cc(NC(=O)c2ccccn2)c2ncccc2c1` [Compound 2], the CC50 in series [1] was 0.038 µM; in series [2], 0.031 µM; in series [3], 3.4 µM.
On the same counts, the results for `O=C(Nc1cccc2cccnc12)c1cc(N2CCOCC2)ccn1` [Compound 30] are 0.022 µM, 0.026 µM and 8 µM.
`O=C(Nc1cccc2cccnc12)c1cc(N2CCCCC2)ccn1` [Compound 43]: the figures for the CC50 in series [1] (setting [6]), in series [2] (setting [7]) and in series [3] were 0.4 µM, 0.22 µM and > 10 µM, respectively.
Take `Cc1cc(NC(=O)c2ccccn2)c2ncccc2c1C` [Compound 17]: the CC50 in series [1] is 0.16 µM; in series [2] it was 0.13 µM; in series [3], > 10 µM.
On the same counts, the results for `O=C(Nc1cccc2cccnc12)c1cc(N2CCC(O)CC2)ccn1` [Compound 37] are 0.29 µM, 0.31 µM and > 10 µM.
Regarding `CN1CCC[C@H]1C(=O)Nc1cccc2cccnc12` [Compound 108, (S)-1-methyl-pyrrolidine-2-carboxylic acid quinolin-8-ylamide L-tartrate salt], the CC50 in series [1] (VEGF 165 10 ng/mL, 6 days, Alamar blue, L-tartrate salt, read-out: VEGF LC50) was 0.29 µM; in series [2] (b-FGF 2.5 ng/mL, 6 days, Alamar blue, L-tartrate salt, read-out: b-FGF LC50), 0.22 µM; in series [3], > 10 µM.
On to `O=C(Nc1cccc2cccnc12)c1cc(SCc2ccccc2)ccn1` [Compound 45], for which the CC50 is 0.061 µM in series [1] (setting [6]), 0.19 µM in series [2] (setting [7]) and > 10 µM in series [3].
As to `O=C(Nc1cc(Cl)c(Cl)c2cccnc12)c1ccccn1` [Compound 15], the CC50 in series [1] was 0.21 µM; in series [2] it was 0.22 µM; in series [3], > 10 µM.
On the same counts, the results for `CCN(C)c1ccccc1NC(=O)c1ccccn1` [Compound 81] are 0.62 µM, 0.5 µM and > 10 µM.
In the case of `CN1CCN(c2ccnc(C(=O)Nc3cccc4cccnc34)c2)CC1` [Compound 100, 4-(4-methylpiperazin-1-yl)pyridine-2-carboxylic acid quinolin-8-ylamide trifluoroacetate salt], the CC50 in series [1] (setting [4]) was determined as 0.018 µM; in series [2] (setting [5]), 0.019 µM; in series [3] (trifluoroacetate salt), 2.9 µM.
On to `CN(C)CCCOc1cccnc1C(=O)Nc1cccc2cccnc12` [Compound 49], for which the figures for the CC50 in series [1] (setting [6]), in series [2] (setting [7]) and in series [3] were 1.7 µM, 2.5 µM and > 10 µM, respectively.
As to `CCN(CC)c1ccccc1NC(=O)c1ccccn1` [Compound 84], the figures for the CC50 in series [1], in series [2] and in series [3] were 1.6 µM, 1.5 µM and > 10 µM, respectively.
Consider `O=C(Nc1cc(C(F)(F)F)cc2cccnc12)c1ccccn1` [Compound 5], for which the CC50 in series [1] is 0.16 µM; in series [2], 0.12 µM; in series [3], > 10 µM.
For the molecule `Cc1cccnc1C(=O)Nc1cccc2cccnc12` [Compound 24], the CC50 in series [1] was 0.14 µM; in series [2], 0.15 µM; in series [3], > 10 µM.
As to `O=C(Nc1cccc2nccnc12)c1ccccn1` [Compound 77], the CC50 in series [1] (setting [6]) was 0.17 µM; in series [2] (setting [7]), 0.18 µM; in series [3], > 10 µM.
Take `CCCOc1cccnc1C(=O)Nc1cccc2cccnc12` [Compound 23]: the CC50 in series [1] was 0.18 µM; in series [2], 0.21 µM; in series [3], > 10 µM.
For the molecule `O=C(Nc1cc(-c2ccccc2)cc2cccnc12)c1ccccn1` [Compound 10], the figures for the CC50 in series [1] (setting [6]), in series [2] (setting [7]) and in series [3] were 0.26 µM, 0.38 µM and > 10 µM, respectively.
In the same order, the values of `O=C(Nc1cccc2cccnc12)c1cc(N2CCN(Cc3ccccc3)CC2)ccn1` [Compound 36] are 0.84 µM, 0.9 µM and > 10 µM.
`CC(C)N(C)c1ccccc1NC(=O)c1ccccn1` [Compound 83]: the CC50 was 9.6 µM in series [1], 6.5 µM in series [2] and > 10 µM in series [3].
For the molecule `O=C(Nc1cccc2cccnc12)c1cc(-c2ccccc2)ccn1` [Compound 27], the CC50 is 0.64 µM in series [1] (setting [6]), 0.95 µM in series [2] (setting [7]) and > 10 µM in series [3].
Turning to `Cc1cccc(C(=O)Nc2cccc3cccnc23)n1` [Compound 25], the CC50 in series [1] is 2.5 µM; in series [2], 2.3 µM; in series [3], > 10 µM.
On the same counts, the results for `CCOc1cc(NC(=O)c2ccccn2)c2ncccc2c1` [Compound 8] are 0.096 µM, 0.081 µM and > 10 µM.
As for `CN1CCCN(c2ccnc(C(=O)Nc3cccc4cccnc34)c2)CC1` [Compound 38], the CC50 is 0.026 µM in series [1], 0.025 µM in series [2] and > 10 µM in series [3].
